# Measurements reported in PMC6986443, “T‐495, a novel low cooperative M1 receptor positive allosteric modulator, improves memory deficits associated with cholinergic dysfunction and is characterized by low gastrointestinal side effect risk” (Pharmacology Research & Perspectives, 2020).
# Experiments:
# Assay in all cases: Selectivity panel
# Format in all cases: binding
# Vasopressin V2 = biological target: T1, Vasopressin V2 (Homo sapiens, UniProt P30518)
# T1 construct: purchased Eurofins Panlabs Taiwan Ltd
# Excerpt: (§1) The selectivity of T‐495 at 10 μmol/L against a panel of 106 targets, including receptors, enzymes, ion channels, and transporters, was characterized (Eurofins Panlabs Taiwan Ltd., Taipei, Taiwan).
# [1] = system: Calcium channel L-type, benzothiazepine
# Excerpt: as §1
# Histamine H1 = biological target: T2, Histamine H1 (Homo sapiens, UniProt P35367)
# T2 construct: purchased Eurofins Panlabs Taiwan Ltd
# Excerpt: as §1
# [2] = biological target: T3, Transporter, dopamine (DAT) (Homo sapiens, UniProt Q01959)
# T3 construct: purchased Eurofins Panlabs Taiwan Ltd
# Excerpt: as §1
# [3] = system: Adrenergic α2, non-selective
# Excerpt: as §1
# Imidazoline I2, central = system: Imidazoline I2, central
# Excerpt: as §1
# Serotonin 5-HT2B = biological target: T4, Serotonin 5-HT2B (Homo sapiens, UniProt P41595)
# T4 construct: purchased Eurofins Panlabs Taiwan Ltd
# Excerpt: as §1
# Bradykinin B2 = biological target: T5, Bradykinin B2 (Homo sapiens, UniProt P30411)
# T5 construct: purchased Eurofins Panlabs Taiwan Ltd
# Excerpt: as §1
# Dopamine D4.2 = system: Dopamine D4.2
# Excerpt: as §1
# Angiotensin AT1 = biological target: T6, Angiotensin AT1 (Homo sapiens, UniProt P30556)
# T6 construct: purchased Eurofins Panlabs Taiwan Ltd
# T6 sequence (P30556 whole entry): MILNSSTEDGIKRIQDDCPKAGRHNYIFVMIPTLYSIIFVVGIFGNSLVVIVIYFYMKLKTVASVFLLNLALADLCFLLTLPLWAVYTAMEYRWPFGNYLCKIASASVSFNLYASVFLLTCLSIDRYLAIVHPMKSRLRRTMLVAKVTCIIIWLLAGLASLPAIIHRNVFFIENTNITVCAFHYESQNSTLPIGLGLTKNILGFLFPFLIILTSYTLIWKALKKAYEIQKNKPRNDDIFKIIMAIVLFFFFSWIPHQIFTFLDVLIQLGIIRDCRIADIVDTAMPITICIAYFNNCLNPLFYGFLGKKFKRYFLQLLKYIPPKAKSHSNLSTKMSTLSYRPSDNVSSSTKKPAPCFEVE
# Excerpt: as §1
# [4] = system: Glycine, strychnine-sensitive
# Excerpt: as §1
# Transporter, GABA = system: Transporter, GABA
# Excerpt: as §1
# [5] = biological target: T7, Cholecystokinin CCK2 (CCKB) (Homo sapiens, UniProt P32239)
# T7 construct: purchased Eurofins Panlabs Taiwan Ltd
# Excerpt: as §1
# Serotonin 5-HT3 = biological target: T8, Serotonin 5-HT3 (Homo sapiens, UniProt P46098)
# T8 construct: purchased Eurofins Panlabs Taiwan Ltd
# T8 sequence (P46098 24-478): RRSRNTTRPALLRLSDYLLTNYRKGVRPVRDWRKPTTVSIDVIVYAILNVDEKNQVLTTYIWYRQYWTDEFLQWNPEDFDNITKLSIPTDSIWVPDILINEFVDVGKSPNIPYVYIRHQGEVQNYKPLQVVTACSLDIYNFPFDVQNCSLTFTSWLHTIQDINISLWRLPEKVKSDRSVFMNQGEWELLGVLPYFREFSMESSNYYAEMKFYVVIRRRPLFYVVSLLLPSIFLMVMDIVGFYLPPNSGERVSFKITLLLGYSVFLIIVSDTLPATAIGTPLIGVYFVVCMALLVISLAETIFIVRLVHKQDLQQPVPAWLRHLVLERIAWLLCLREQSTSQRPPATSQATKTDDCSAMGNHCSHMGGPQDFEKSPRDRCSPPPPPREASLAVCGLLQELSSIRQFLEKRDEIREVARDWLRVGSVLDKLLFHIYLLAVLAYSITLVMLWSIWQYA
# Excerpt: as §1
# Serotonin 5-HT2A = biological target: T9, Serotonin 5-HT2A (Homo sapiens, UniProt P28223)
# T9 construct: purchased Eurofins Panlabs Taiwan Ltd
# Excerpt: as §1
# GABAB1B = biological target: T10, GABAB1B (Homo sapiens, UniProt Q9UBS5)
# T10 construct: purchased Eurofins Panlabs Taiwan Ltd
# Excerpt: as §1
# Adenosine A2B = biological target: T11, Adenosine A2B (Homo sapiens, UniProt P29275)
# T11 construct: purchased Eurofins Panlabs Taiwan Ltd
# Excerpt: as §1
# Muscarinic M1 = biological target: T12, Muscarinic M1 (Homo sapiens, UniProt P11229)
# T12 construct: purchased Eurofins Panlabs Taiwan Ltd
# Excerpt: as §1
# GABAB1A = biological target: T13, GABAB1A (Homo sapiens, UniProt Q9UBS5)
# T13 construct: purchased Eurofins Panlabs Taiwan Ltd
# Excerpt: as §1
# [6] = system: GABAA, flunitrazepam, central
# Excerpt: as §1
# Glucocorticoid = biological target: T14, Glucocorticoid (Homo sapiens, UniProt P04150)
# T14 construct: purchased Eurofins Panlabs Taiwan Ltd
# Excerpt: as §1
# Adrenergic β3 = biological target: T15, Adrenergic β3 (Homo sapiens, UniProt P13945)
# T15 construct: purchased Eurofins Panlabs Taiwan Ltd
# Excerpt: as §1
# Adenosine A1 = biological target: T16, Adenosine A1 (Homo sapiens, UniProt P30542)
# T16 construct: purchased Eurofins Panlabs Taiwan Ltd
# Excerpt: as §1
# Sigma, non-selective = system: Sigma, non-selective
# Excerpt: as §1
# Opiate δ1 (OP1, DOP) = biological target: T17, Opiate δ1 (OP1, DOP) (Homo sapiens, UniProt P41143)
# T17 construct: purchased Eurofins Panlabs Taiwan Ltd
# Excerpt: as §1
# Dopamine D3 = biological target: T18, Dopamine D3 (Homo sapiens, UniProt P35462)
# T18 construct: purchased Eurofins Panlabs Taiwan Ltd
# Excerpt: as §1
# Melatonin MT1 = biological target: T19, Melatonin MT1 (Homo sapiens, UniProt P48039)
# T19 construct: purchased Eurofins Panlabs Taiwan Ltd
# T19 sequence (P48039 whole entry): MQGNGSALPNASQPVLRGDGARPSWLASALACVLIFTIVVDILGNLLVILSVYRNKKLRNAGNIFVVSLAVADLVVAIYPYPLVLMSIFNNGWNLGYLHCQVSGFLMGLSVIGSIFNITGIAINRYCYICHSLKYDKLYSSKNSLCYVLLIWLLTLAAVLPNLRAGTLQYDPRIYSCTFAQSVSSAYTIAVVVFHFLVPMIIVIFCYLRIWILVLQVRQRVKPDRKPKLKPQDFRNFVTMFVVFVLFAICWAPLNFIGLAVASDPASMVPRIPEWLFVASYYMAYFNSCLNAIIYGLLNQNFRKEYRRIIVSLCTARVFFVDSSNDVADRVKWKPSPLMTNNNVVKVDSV
# Excerpt: as §1
# Dopamine D1 = biological target: T20, Dopamine D1 (Homo sapiens, UniProt P21728)
# T20 construct: purchased Eurofins Panlabs Taiwan Ltd
# Excerpt: as §1
# Histamine H2 = biological target: T21, Histamine H2 (Homo sapiens, UniProt P25021)
# T21 construct: purchased Eurofins Panlabs Taiwan Ltd
# Excerpt: as §1
# Calcium channel N-type = biological target: T22, Calcium channel N-type (Rattus norvegicus, UniProt Q02294)
# T22 construct: purchased Eurofins Panlabs Taiwan Ltd
# T22 sequence (Q02294 whole entry): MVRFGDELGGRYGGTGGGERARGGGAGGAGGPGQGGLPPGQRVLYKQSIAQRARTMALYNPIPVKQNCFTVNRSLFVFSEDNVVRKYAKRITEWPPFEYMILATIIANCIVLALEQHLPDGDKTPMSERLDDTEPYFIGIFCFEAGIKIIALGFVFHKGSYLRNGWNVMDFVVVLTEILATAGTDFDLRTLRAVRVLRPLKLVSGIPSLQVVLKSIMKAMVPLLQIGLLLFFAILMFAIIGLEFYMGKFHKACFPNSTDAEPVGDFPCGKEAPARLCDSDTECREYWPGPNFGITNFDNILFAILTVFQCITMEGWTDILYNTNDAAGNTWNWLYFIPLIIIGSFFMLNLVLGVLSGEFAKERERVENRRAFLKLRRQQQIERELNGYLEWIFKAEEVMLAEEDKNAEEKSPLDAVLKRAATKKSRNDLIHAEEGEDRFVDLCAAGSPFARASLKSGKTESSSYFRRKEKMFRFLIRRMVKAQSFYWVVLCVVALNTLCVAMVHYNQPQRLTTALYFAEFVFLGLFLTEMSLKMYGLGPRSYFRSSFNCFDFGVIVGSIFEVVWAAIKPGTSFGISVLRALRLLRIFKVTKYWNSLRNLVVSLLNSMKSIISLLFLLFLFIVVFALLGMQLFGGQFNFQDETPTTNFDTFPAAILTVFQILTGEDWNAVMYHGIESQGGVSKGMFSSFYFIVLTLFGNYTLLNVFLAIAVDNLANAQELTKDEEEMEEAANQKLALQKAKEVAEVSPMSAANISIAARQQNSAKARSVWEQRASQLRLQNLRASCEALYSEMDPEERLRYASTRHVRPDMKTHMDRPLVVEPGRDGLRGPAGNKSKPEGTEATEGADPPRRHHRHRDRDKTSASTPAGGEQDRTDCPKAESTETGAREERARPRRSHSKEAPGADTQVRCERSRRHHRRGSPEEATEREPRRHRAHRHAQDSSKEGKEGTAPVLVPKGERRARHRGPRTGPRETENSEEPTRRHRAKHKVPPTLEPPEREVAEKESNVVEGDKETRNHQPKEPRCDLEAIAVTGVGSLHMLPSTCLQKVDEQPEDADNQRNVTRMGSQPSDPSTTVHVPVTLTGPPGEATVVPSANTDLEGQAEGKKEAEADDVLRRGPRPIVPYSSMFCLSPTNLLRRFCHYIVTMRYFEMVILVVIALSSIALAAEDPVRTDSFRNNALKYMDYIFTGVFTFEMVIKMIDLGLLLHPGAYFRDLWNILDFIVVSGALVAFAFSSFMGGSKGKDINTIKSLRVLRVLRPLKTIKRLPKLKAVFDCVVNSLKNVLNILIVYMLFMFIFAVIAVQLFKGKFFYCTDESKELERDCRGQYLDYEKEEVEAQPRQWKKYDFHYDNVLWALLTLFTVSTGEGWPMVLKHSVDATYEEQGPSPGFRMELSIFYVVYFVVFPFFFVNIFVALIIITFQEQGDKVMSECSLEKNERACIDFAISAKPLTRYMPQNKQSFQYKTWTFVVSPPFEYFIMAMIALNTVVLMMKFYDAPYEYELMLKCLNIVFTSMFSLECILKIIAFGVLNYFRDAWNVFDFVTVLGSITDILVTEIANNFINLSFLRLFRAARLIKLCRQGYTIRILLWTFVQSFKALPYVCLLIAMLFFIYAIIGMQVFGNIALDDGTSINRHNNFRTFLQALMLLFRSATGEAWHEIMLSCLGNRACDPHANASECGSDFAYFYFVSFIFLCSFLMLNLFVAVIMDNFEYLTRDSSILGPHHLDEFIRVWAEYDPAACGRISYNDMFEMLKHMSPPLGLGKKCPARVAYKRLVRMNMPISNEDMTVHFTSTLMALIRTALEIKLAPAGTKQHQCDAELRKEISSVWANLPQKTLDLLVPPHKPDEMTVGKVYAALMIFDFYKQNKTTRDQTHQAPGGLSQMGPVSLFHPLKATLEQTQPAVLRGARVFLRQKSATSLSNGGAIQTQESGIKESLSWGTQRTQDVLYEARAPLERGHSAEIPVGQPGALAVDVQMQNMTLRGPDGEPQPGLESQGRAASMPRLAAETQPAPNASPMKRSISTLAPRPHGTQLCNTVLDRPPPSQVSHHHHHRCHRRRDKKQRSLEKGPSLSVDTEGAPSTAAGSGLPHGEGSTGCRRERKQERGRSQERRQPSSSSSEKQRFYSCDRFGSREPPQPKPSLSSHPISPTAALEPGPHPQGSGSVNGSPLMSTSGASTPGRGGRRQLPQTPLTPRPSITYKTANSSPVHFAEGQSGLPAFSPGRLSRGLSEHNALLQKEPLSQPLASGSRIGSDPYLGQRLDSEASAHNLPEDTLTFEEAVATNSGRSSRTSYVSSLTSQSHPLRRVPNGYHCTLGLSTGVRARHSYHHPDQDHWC
# Excerpt: as §1
# Cannabinoid CB1 = biological target: T23, Cannabinoid CB1 (Homo sapiens, UniProt P21554)
# T23 construct: purchased Eurofins Panlabs Taiwan Ltd
# Excerpt: as §1
# IP (PGI2) = biological target: T24, IP (PGI2) (Homo sapiens, UniProt P43119)
# T24 construct: purchased Eurofins Panlabs Taiwan Ltd
# T24 sequence (P43119 whole entry): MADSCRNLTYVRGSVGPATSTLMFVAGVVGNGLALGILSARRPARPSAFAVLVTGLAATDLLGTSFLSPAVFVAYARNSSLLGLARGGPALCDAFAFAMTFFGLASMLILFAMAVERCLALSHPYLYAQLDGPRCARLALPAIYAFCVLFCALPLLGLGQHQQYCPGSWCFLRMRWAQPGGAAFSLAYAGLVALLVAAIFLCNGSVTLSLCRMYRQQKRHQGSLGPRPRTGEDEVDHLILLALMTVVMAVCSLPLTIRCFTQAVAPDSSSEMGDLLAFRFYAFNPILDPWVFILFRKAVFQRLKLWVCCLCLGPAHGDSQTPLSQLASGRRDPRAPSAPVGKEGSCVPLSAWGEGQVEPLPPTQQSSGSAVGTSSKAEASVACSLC
# Excerpt: as §1
# Adrenergic β2 = biological target: T25, Adrenergic β2 (Homo sapiens, UniProt P07550)
# T25 construct: purchased Eurofins Panlabs Taiwan Ltd
# Excerpt: as §1
# Progesterone PR-B = biological target: T26, Progesterone PR-B (Homo sapiens, UniProt P06401)
# T26 construct: purchased Eurofins Panlabs Taiwan Ltd
# T26 sequence (P06401 whole entry): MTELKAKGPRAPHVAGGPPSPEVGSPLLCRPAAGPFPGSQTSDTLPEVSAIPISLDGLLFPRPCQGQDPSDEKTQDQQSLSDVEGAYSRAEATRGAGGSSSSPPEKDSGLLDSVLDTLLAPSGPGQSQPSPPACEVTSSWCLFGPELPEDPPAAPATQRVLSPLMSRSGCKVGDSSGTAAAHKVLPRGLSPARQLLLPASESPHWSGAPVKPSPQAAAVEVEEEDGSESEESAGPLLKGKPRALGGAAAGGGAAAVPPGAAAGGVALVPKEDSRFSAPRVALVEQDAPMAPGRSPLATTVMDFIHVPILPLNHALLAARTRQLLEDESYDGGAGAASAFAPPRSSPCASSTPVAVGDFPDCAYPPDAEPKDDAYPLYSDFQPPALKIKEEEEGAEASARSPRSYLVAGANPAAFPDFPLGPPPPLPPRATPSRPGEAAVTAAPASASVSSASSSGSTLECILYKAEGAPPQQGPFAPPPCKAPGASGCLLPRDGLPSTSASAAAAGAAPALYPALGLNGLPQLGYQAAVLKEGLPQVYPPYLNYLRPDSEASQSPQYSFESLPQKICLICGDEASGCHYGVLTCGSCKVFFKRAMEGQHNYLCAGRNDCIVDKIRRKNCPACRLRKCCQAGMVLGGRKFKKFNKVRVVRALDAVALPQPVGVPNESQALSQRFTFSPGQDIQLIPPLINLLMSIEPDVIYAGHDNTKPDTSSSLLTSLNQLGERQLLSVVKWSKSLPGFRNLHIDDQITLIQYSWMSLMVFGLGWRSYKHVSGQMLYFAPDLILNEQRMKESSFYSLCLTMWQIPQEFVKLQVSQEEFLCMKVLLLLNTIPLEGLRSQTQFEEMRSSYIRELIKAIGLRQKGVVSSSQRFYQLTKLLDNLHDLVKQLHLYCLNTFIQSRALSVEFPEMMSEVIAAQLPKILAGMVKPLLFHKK
# Excerpt: as §1
# Nicotinic acetylcholine = system: Nicotinic acetylcholine
# Excerpt: as §1
# Glutamate, NMDA, glycine = system: Glutamate, NMDA, glycine
# Excerpt: as §1
# Opiate κ (OP2, KOP) = biological target: T27, Opiate κ (OP2, KOP) (Homo sapiens, UniProt P41145)
# T27 construct: purchased Eurofins Panlabs Taiwan Ltd
# Excerpt: as §1
# [7] = system: Adrenergic α1, non-selective
# Excerpt: as §1
# Glutamate, NMDA = system: Glutamate, NMDA
# Excerpt: as §1
# Muscarinic M3 = biological target: T28, Muscarinic M3 (Homo sapiens, UniProt P20309)
# T28 construct: purchased Eurofins Panlabs Taiwan Ltd
# Excerpt: as §1
# GABAA, chloride channel = system: GABAA, chloride channel
# Excerpt: as §1
# Sodium channel, Site 2 = system: Sodium channel, Site 2
# Excerpt: as §1
# Serotonin 5-HT1A = biological target: T29, Serotonin 5-HT1A (Homo sapiens, UniProt P08908)
# T29 construct: purchased Eurofins Panlabs Taiwan Ltd
# Excerpt: as §1
# GABAA, muscimol, central = system: GABAA, muscimol, central
# Excerpt: as §1
# Potassium channel (SKCA) = system: Potassium channel (SKCA)
# Excerpt: as §1
# Potassium channel (KATP) = system: Potassium channel (KATP)
# Excerpt: as §1
smiles,measurement,setting,value
"Cc1c(Cc2ccc(Cl)nc2)cc2c(c1Cl)OCN([C@H]1CCC[C@@H]1O)C2=O [T‐495, 8‐chloro‐6‐((6‐chloropyridin‐3‐yl)methyl)‐3‐((1S,2S)‐2‐hydroxycyclopentyl)‐7‐methyl‐2,3‐dihydro‐4H‐1,3‐benzoxazin‐4‐one]",inhibition at 10 µM,Vasopressin V2,-7%
same,% inhibition at 10 μM,[1],-5%
same,inhibition at 10 µM,Histamine H1,2%
same,inhibition at 10 µM,[2],58%
same,% inhibition at 10 μM,[3],26%
same,% inhibition at 10 μM,"Imidazoline I2, central",76%
same,inhibition at 10 µM,Serotonin 5-HT2B,28%
same,inhibition at 10 µM,Bradykinin B2,-4%
same,% inhibition at 10 μM,Dopamine D4.2,3%
same,inhibition at 10 µM,Angiotensin AT1,23%
same,% inhibition at 10 μM,[4],9%
same,% inhibition at 10 μM,"Transporter, GABA",-7%
same,inhibition at 10 µM,[5],10%
same,inhibition at 10 µM,Serotonin 5-HT3,-3%
same,inhibition at 10 µM,Serotonin 5-HT2A,20%
same,inhibition at 10 µM,GABAB1B,6%
same,inhibition at 10 µM,Adenosine A2B,7%
same,inhibition at 10 µM,Muscarinic M1,15%
same,inhibition at 10 µM,GABAB1A,5%
same,% inhibition at 10 μM,[6],12%
same,inhibition at 10 µM,Glucocorticoid,25%
same,inhibition at 10 µM,Adrenergic β3,7%
same,inhibition at 10 µM,Adenosine A1,15%
same,% inhibition at 10 μM,"Sigma, non-selective",25%
same,inhibition at 10 µM,"Opiate δ1 (OP1, DOP)",4%
same,inhibition at 10 µM,Dopamine D3,-3%
same,inhibition at 10 µM,Melatonin MT1,29%
same,inhibition at 10 µM,Dopamine D1,-7%
same,inhibition at 10 µM,Histamine H2,22%
same,inhibition at 10 µM,Calcium channel N-type,0%
same,inhibition at 10 µM,Cannabinoid CB1,14%
same,inhibition at 10 µM,IP (PGI2),16%
same,inhibition at 10 µM,Adrenergic β2,15%
same,inhibition at 10 µM,Progesterone PR-B,21%
same,% inhibition at 10 μM,Nicotinic acetylcholine,-4%
same,% inhibition at 10 μM,"Glutamate, NMDA, glycine",15%
same,inhibition at 10 µM,"Opiate κ (OP2, KOP)",14%
same,% inhibition at 10 μM,[7],11%
same,% inhibition at 10 μM,"Glutamate, NMDA",14%
same,inhibition at 10 µM,Muscarinic M3,20%
same,% inhibition at 10 μM,"GABAA, chloride channel",45%
same,% inhibition at 10 μM,"Sodium channel, Site 2",1%
same,inhibition at 10 µM,Serotonin 5-HT1A,8%
same,% inhibition at 10 μM,"GABAA, muscimol, central",-1%
same,% inhibition at 10 μM,Potassium channel (SKCA),1%
same,% inhibition at 10 μM,Potassium channel (KATP),2%
